Molecular target: T1, Lysosomal acid glucosylceramidase (Homo sapiens, UniProt P04062)
T1 sequence (P04062 whole entry): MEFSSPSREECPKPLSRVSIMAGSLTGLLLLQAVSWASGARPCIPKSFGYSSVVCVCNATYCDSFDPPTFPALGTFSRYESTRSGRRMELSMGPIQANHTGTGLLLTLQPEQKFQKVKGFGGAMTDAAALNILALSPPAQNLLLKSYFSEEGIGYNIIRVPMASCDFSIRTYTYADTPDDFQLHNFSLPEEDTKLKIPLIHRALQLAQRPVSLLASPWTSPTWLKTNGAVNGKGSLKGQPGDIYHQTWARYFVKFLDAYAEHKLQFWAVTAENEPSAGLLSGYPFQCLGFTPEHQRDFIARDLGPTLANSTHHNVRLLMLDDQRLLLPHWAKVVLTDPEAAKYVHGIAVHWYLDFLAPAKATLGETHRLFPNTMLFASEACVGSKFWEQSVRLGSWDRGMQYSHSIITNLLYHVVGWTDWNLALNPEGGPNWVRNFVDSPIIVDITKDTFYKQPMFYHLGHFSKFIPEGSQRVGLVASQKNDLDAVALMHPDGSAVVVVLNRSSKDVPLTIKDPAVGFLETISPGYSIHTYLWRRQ
Test: Chaperone activity at GCase in wild-type human fibroblasts assessed as increase in GPN-induced reduction of calcium release using Fluo-8AM based fluorescence assay

| EC50 [nM] | Structure (SMILES) |
| --- | --- |
| 1100 | C/C=C/c1ccccc1C(CCCC)C(=O)c1ccc(OCCN(C)C)cc1 (centres undefined) |
| 700 | CCCCC(C(=O)c1ccc(OCCN(C)C)cc1)c1ccccc1C(C)C (centres undefined) |
| 1100 | CC(C)CC(C(=O)c1ccc(OCCN(C)C)cc1)c1ccccc1C(C)C (centres undefined) |
| 1100 | CC(C)CC(C(=O)c1ccc(OCCN(C)C)cc1)c1ccccc1C1CC1 (centres undefined) |

— BindingDB's records for doi:10.1016/j.bmcl.2019.126806 (Temple University, 2020)
